In publication PMC9097457 (The Journal of Biological Chemistry, 2022):

Columns and labels:
[1] = test system: mitochondrial polymerase γ; details: cited from earlier work
[2] = molecular target: T1, deoxyguanosine kinase (dGK) (Rattus norvegicus, UniProt A0A0G2K478); assay: Kinetic analysis of [3H]-dG and [3H]-ETV phosphorylation and cross inhibition in heart mitochondria; type: biochemical; details: absence of ETV, data of Figure 4
T1 sequence (A0A0G2K478 with tags, fused parts or gaps): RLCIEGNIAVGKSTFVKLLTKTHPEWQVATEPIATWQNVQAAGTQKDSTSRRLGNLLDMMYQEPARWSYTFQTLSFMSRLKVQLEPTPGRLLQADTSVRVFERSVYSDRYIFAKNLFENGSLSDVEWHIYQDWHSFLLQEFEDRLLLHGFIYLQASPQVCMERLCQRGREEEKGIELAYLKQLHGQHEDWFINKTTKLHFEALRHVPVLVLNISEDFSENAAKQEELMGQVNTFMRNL
Protocol: (§1) To measure and compare phosphorylation and kinetics, a stable substrate concentration was necessary and EHNA (5 μM) ([50]) and I-H (2.0 μM) ([49]) were added to all mitochondrial incubations. […] The mitochondria were incubated in vitro for up to 2 h at 37 °C in a shaker bath. At the end of the incubation, reactions were terminated by addition of 10% TCA to an equal volume of incubation mixture (175 μl) and spun in a microcentrifuge to remove precipitates. The supernatant was neutralized with AG 11 A8 resin and filtered through a […] nylon syringe filter. The neutralized and filtered supernatants were analyzed by ultra high pressure liquid chromatography (UPLC). Radioactivity was determined from aliquots of each sample and processed through a Beckman Coulter multipurpose liquid scintillation counter (model 6500).
(§2) The radioactivity in each of these peaks was quantitated and totaled to provide the total amount of radioactivity in the phosphorylated products for each labeled precursor. This total was divided by the specific radioactivity of the precursor and expressed as pmol/mg protein/hr. The Kms were calculated from Lineweaver–Burk plots 1/Vo=Km/Vmax[S]+1/Vmax

[3] = test system: heart mitochondria; assay: Conversion of [3H]-dGMP to [3H]-dGTP in isolated heart mitochondria; type: biochemical, rat; details: 1 μM precursor
Protocol: Thus, we were interested in determining if the dGTP and dATP phosphorylation pathway in isolated mitochondria functioned similarly.
[^3H]-dGMP (1 μM) or [^3H]-dAMP (1 μM) was incubated in heart mitochondria as described for Figure 1 for the times shown, and their conversion to [^3H]-dGTP and [^3H]-dATP, respectively, determined in the presence and absence of Ap5A ([…]), a competitive inhibitor of adenylate kinase. Data are shown as a box plot of two independent experiments. The thickness of the lines indicates the spread of the duplicates. Ap5A, P1,P5-di(adenosine-5) pentaphosphate pentasodium salt.
as §1

[4] = molecular target: T1, deoxyguanosine kinase (dGK); assay: Inhibition of [3H]-dA phosphorylation by competing deoxynucleosides in liver mitochondria; type: biochemical; details: IC50 values at 1 μM substrate
Protocol: as §1, §2

[5] = molecular target: T1, deoxyguanosine kinase (dGK); assay: Tissue-specific phosphorylation of [3H]-dG, [3H]-dA and [3H]-ETV in isolated mitochondria; type: biochemical; details: 2 h; for dG converted to phosphorylated products: 1 μM
Protocol: As noted in the Experimental procedures, these were added together to determine total phosphorylation.
as §1
Extent of phosphorylation was measured and analyzed by UPLC (Agilent 1290) with a reverse-phase C18 column (Zorbax Eclipse Plus C18; 3.0 × 150 mm, 1.8 micron) coupled with an inline diode array to detect UV signal at 254 nm and to an inline liquid scintillation counter (β-Ram) to quantitate radioactivity.
as §2

[6] = molecular target: T1, deoxyguanosine kinase (dGK); assay: Kinetic analysis of [3H]-dA phosphorylation in the presence of dG or ETV in liver mitochondria; type: biochemical; details: 0.12 μM inhibitor, 4 μM dA
Protocol: as §1

[7] = molecular target: T2, purine nucleoside phosphorylase (PNP) (Rattus norvegicus, UniProt P85973)
T2 sequence (P85973 1-289): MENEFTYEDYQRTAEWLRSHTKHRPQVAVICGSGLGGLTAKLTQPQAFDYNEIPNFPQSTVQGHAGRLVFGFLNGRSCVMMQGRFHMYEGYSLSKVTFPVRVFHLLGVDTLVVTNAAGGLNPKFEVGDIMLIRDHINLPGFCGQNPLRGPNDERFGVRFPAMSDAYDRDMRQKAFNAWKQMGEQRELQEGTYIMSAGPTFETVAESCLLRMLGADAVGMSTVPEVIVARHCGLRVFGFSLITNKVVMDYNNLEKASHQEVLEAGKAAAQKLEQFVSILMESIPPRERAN
Protocol: To measure and compare phosphorylation and kinetics, a stable substrate concentration was necessary and EHNA (5 μM) ([50]) and I-H (2.0 μM) ([49]) were added to all mitochondrial incubations. […] The mitochondria were incubated in vitro for up to 2 h at 37 °C in a shaker bath. At the end of the incubation, reactions were terminated by addition of 10% TCA to an equal volume of incubation mixture (175 μl) and spun in a microcentrifuge to remove precipitates. The supernatant was neutralized with AG 11 A8 resin and filtered through a 0.2-μM nylon syringe filter. The neutralized and filtered supernatants were analyzed by ultra high pressure liquid chromatography (UPLC). Radioactivity was determined from aliquots of each sample and processed through a Beckman Coulter multipurpose liquid scintillation counter (model 6500).

[8] = test system: isolated rat heart; assay: Phosphorylation of [3H]-ETV, [3H]-dG and [3H]-dA in the isolated perfused rat heart (Langendorff); details: 60-min perfusion
Protocol: The phosphorylation of [^3H]-dG, [^3H]-dA, and [^3H]-ETV in isolated mitochondria depends on the activity of the mitochondrial dGK. To determine the degree of phosphorylation in a whole tissue, which would include the activity of the cytosolic dCK, we utilized an isolated rat heart Langendorff retrograde perfusion model. The breakdown and phosphorylation of [^3H]-ETV, [^3H]-dG, and [^3H]-dA (0.5 μM each) was measured in the perfusates and in the hearts after 60 min of perfusion (Fig. 9, A and B). […] However, the heart was still able to take up and maintain a small amount of dG to generate 0.18 ± 0.05 pmol/mg wet heart of phosphorylated dG during the 60-min perfusion. […] Despite the loss of [^3H]-dA from the perfusate, the heart took up and maintained enough dA to produce 0.48 ± 0.08 pmol/mg wet heart of phosphorylated [^3H]-dA products at 60 min (Fig. 9B). […] Note that [^3H]-dG and [^3H]-dG catabolites equilibrate rapidly between the perfusion buffer and the heart, while the phosphorylated forms of [^3H]-dG are retained solely in the heart tissue.
Figure 9 [^3H]-ETV and [^3H]-dG phosphorylation in a perfused rat heart. Rat hearts were removed and perfused using the Langendorff method for 1 h as described in Experimental procedures with 0.5 μM [^3H]-ETV, 0.5 μM [^3H]-dG), or 0.5 μM [^3H]-dA. […] A, the amount of exogenous [^3H]-parent compound in the perfusate as a function of time, plotted as a box plot of three independent experiments. See text for details. B, the amount of phosphorylated [^3H]-ETV, [^3H]-dG, or [^3H]-dA in the heart tissue after 60 min of perfusion with additions as noted in (A). See text for details.
Rat hearts were perfused by Langendorff retrograde perfusion apparatus with [^3H]-dG, [^3H]-dA, or [^3H]-ETV for 60 min under the conditions previously described ([25], [26], [51]). Perfused hearts were snap frozen into wafers by clamping the heart in liquid nitrogen, and the frozen tissue wafers were stored in −80 °C until processed as previously described for ([24]) UPLC analysis.

[9] = test system: isolated rat heart; assay: Breakdown of the [3H]-parent compound in the perfusate of the isolated perfused rat heart; type: in vitro ADME; details: 0.5 μM [3H]-dG alone
Protocol: To determine the degree of phosphorylation in a whole tissue, which would include the activity of the cytosolic dCK, we utilized an isolated rat heart Langendorff retrograde perfusion model.
See text for details. […] See text for details.
Perfused hearts were snap frozen into wafers by clamping the heart in liquid nitrogen, and the frozen tissue wafers were stored in −80 °C until processed as previously described for ([24]) UPLC analysis.

rate of [3H]-dG phosphorylation to [3H]-dGTP, control [2] [pmol/mg protein/hr] | inhibition of dA phosphorylation more potent than ETV inhibition of dG phosphorylation [4] [fold] | dG phosphorylated more readily than dA ([5]; 1 μM each, brain, heart, kidney, liver mitochondria) [fold] | dG converted to phosphorylated products ([5]; heart mitochondria) | dG converted to phosphorylated products ([5]; liver mitochondria) | inhibition of dA phosphorylation [6] | stability in heart mitochondria ([7]; heart mitochondria, initial studies) | conversion of [3H]-dG to breakdown products ([7]; kidney mitochondria, 60 min, no inhibitor) [%] | parent compound in the perfusate within 3 min [9] [%] | parent compound in the perfusate, initial level [9] [%] | SMILES | recognition by mitochondrial polymerase γ [1] | conversion to [3H]-dGTP at the 30-min time point [3] [pmol/mg protein] | phosphorylated [3H]-dG in heart ([8]; 0.5 μM [3H]-dG + I-H 2 μM (legend: + I-H and EHNA)) [pmol/mg wet heart] | phosphorylated product in heart ([8]; 0.5 μM labeled compound alone) [pmol/mg wet heart] | parent compound in the perfusate by 60 min [9]
 |  |  |  |  |  |  |  |  |  | C=C1C(COP(=O)(O)OP(=O)(O)OP(=O)(O)O)C(O)CC1n1cnc2c(=O)[nH]c(N)nc21 (stereo not drawn) [ETV-triphosphate] | not recognized |  |  |  | 
45.9 ± 1.8 | 500 | 10 | 30 pmol/mg mitochondrial protein | 60 pmol/mg mitochondrial protein | nearly completely inhibited | stable | 22 | 25 ± 8.8 | 86.8 ± 0.7 | Nc1nc2c(ncn2[C@H]2C[C@H](O)[C@@H](CO)O2)c(=O)[nH]1 [dG, deoxyguanosine] |  | 22.4 ± 0.8 | 0.57 ± 0.08 | 0.18 ± 0.05 | nearly completely converted to catabolites
